Molecules are shown by their SMILES.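 Cultured in 96-well plates, cells were exposed to test compound for 48 hours across five concentrations. The concentration for full growth arrest is given as TGI.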

This assay concerns RXF-631 renal. The experiment in a line: NCI tumour cell line growth inhibition, 48 h.
`CC(C)C1COC(C(C)(C)C2=N[C@@H](C(C)C)CO2)=N1` (stereo not given in full) gave a TGI above 100 µM.

Take `Cc1ccc([N+](=O)[O-])cc1NC(=O)/C(CC(=O)c1sc(C(N)=S)nc1C)=N\N`: the TGI was above 100 µM.

Take `C[C@@H]1C[C@@H]2C(=O)N(c3ccccc3)C(=O)[C@@H]2c2[nH]c3ccc(Br)cc3c21`: the TGI is above 100 µM.

Consider `CC1=C(c2ccccc2)CON(c2ccccc2)C1`, for which the TGI is 77.4 µM.

`O=C(c1nc2ccc(Cl)cc2[nH]c1=O)C(O)c1ccco1` (stereo not given): the TGI is above 100 µM.

The values above are taken from PubChem BioAssay (NCI).
